Ends that are not written are not given here.
Experiments:
αMβ2 integrin = target: T1, αMβ2 integrin (Homo sapiens, UniProt P11215); test: Integrin binding assay, immunocaptured integrin (MEM170 or OKM1); conditions: for binding of GST protein to immunocaptured αMβ2 integrin: 10 μg/ml, 1 mM MnCl2, integrin captured with MEM170 or OKM1, anti-GST detection
T1 construct: integrin from a blood cell lysate was immunocaptured on microtiter wells; from tissue; host or cells: blood buffy coat lysate in octylglucoside
Experimental: Purified LLG-C4-GST or GST control (2 μg/well) was allowed to bind for 60 min in the absence or presence of EDTA. After washing, the bound GST protein was determined by using anti-GST antibodies. […] The experiment was repeated three times with similar results.
(§1) Integrin was immunocaptured on microtiter wells that were coated with the αM subunit antibodies OKM1 or MEM170, the αx subunit antibody TS2/4 or non-specific IgG (Dako, Carpinteria, Calif.). The antibodies were coated at a concentration of 10 μg/ml in TBS overnight at 4° C. After saturation of the wells with 5% BSA, a 200 μl aliquot of the buffy coat lysate in 1% octylglucoside/1 mM MnCl2/TBS was allowed to incubate for 2 h at 4° C. The wells were then washed five times with the octylglucoside-containing buffer. LLG-C4-GST or control GST was incubated at a concentration of 10 μg/ml in 25 mM octylglucoside TBS/1 mM MnCl2 for an hour. Following washing of the wells, the bound GST was determined with anti-GST antibodies (Amersham Pharmacia), which were labeled with an Eu^3+-chelate according to the instructions of the manufacturer (Wallac, Turku, Finland). The Eu^3+-fluorescence was measured with a 1230 Arcus fluorometer (Wallac). For examination of the I-domain binding, we used the recombinant αM I-domain expressed as a GST fusion protein in E. coli as described (Ueda et al., 1994). […] The I-domain was coated on microtiter wells at a concentration of 20 μg/ml, and the binding of LLG-C4-GST and GST was studied.

αM subunit I-domain = target: T2, αM subunit I-domain (Homo sapiens, UniProt P11215); test: I-domain binding assay; conditions: for inhibition of LLG-C4-GST binding to the I-domain: LLG-C4-GST 10 μg/ml, peptides 100 μM, EDTA 2.5 mM; for binding to isolated I-domain of the αM subunit: 0.01–100 μg/ml, 60 min
T2 construct: GST (cleaved yes); made in house; host or cells: E. coli
Experimental: In FIG. 1(B), LLG-C4-GST or GST was incubated for 60 min in microtiter wells coated with purified αM subunit I-domain. The concentrations of GST proteins were as indicated. After washing, the bound GST was determined with anti-GST antibodies. The results are means ±SD from triplicate wells. The results were similar in two other experiments.
After a 60 min incubation, the wells were washed and the binding was determined with anti-GST antibodies. The results are the means ±SD from triplicate wells.
as §1

[1] = tested on: THP-1 cells (β2 integrins); conditions: for competition of THP-1 cell adhesion on LLG-C4-GST substratum: soluble pentapeptides, CLLGC at concentrations of 1 mM or higher
Experimental: In FIG. 2(A), phorbol ester-activated THP-1 cells were allowed to bind for 60 min to microtiter wells coated with LLG-C4-GST, GST, or albumin. EDTA was included at a 2.5 mM concentration. The bound cells were determined by the assay measuring cellular phosphatase activity. The data are the means ±SD from triplicate wells.
In FIG. 2(B), THP-1 cells were mixed with each antibody against the β1, β2, β3, αL, αM, or αX integrin subunit as indicated at a concentration of […]. An aliquot of cells was then transferred to wells coated with LLG-C4-GST and incubated for 60 min at 37° C. Following washing the bound cells were determined by the phosphatase assay. The results are the mean % adhesion ±SD of 2–4 independent experiments each done in triplicate wells.
In FIG. 3(A), TBP-1 cells were mixed in suspension with the peptide containing either the C(1–8;3–9) or C(1–9;3–8) disulfide. The final concentrations of the peptides are indicated. Cells were then incubated for 60 min at 37° C. in microtiter wells coated with LLG-C4-GST. After washing the wells, the bound cells were quantitated by the phosphatase assay. The results are the mean ±SD from triplicate wells.
In FIG. 3(B), THP-1 cell binding to LLG-C4-GST was examined in the presence of the C(1–8;3–9), CLLGC (SEQ ID NO: 4) or the CAAGC (SEQ ID NO: 5) peptide. The synthetic peptides were used at the concentrations indicated. Following a 60 min incubation the wells were washed and the bound cells were determined by the phosphatase assay.
(§2) Fibrinogen, fibronectin, von Wrlnebrand factor, type IV collagen, GST fusion proteins, Fc fusion proteins or synthetic peptides were coated on microtiter wells at a concentration of 2 μg in 50 μl TBS unless otherwise indicated. A recombinant von Willebrand factor and a capturing antibody to it kindly provided by Drs. J. J. Sixma and Ph. G. de Groot (University Medical Center Utrecht, the Netherlands) were also used. To prepare polymerized peptides, glutaraldehyde was added at a final concentration of 0.25%. The wells were saturated with 5% BSA and then washed five times with PBS. Prior to adhesion assays, cells were treated with 50 nM 40-Phorbol 12,13-dibutyrate or with 200 μM P1 peptide (Kotovuori et al., 1999) in serum-free medium for 30 min at room temperature to activate the integrins. Alternatively, cells were stimulated for 60 min at 37° C. with the phorbol ester (50 nM) and the C(1–8;3–9) and RGD-4C peptides each at a 2.5 μM concentration, after which the peptides were removed by washing with PBS/2.5 mM EDTA. Cells were incubated in the microtiter wells (100 000 cells per well) for 60 min at 37° C. in the absence or presence of competing peptides, antibodies or EDTA. Unbound cells were removed by gently washing with PBS and pressing the plate against paper towels. The bound cells were determined by an assay measuring cellular phosphatase activity. Briefly, 100 μl of 50 mM sodium acetate buffer, pH 5.0, containing 1% Triton X-100 and 6 mg/ml p-nitrophenyl phosphate was added per well and incubated for 1 h at 37° C. The reaction was stopped with 50 μl of 1 M NaOH. The absorbance at 405 nm was read on a microplate reader. Alternatively, the attached cells were stained with Crystal Violet essentially as described (Mould et al., 1995).

[2] = tested on: αXβ2 integrin-transfected L cells; test: Adhesion of αXβ2 integrin-transfected L cells to LLG-C4-GST; assay type: cell-based, mouse
Experimental: as §2, with “Unbound cells were removed by gently washing with PBS and pressing the plate against paper towels.” left out, “Briefly, 100 μl of 50 mM sodium acetate buffer, pH 5.0, containing 1% Triton X-100 and 6 mg/ml p-nitrophenyl phosphate was added per well and incubated for 1 h at 37° C. The reaction was stopped with 50 μl of 1 M NaOH.” left out, “Alternatively, the attached cells were stained with Crystal Violet essentially as described (Mould et al., 1995).” left out

[3] = tested on: THP-1 cells on von Willebrand factor; assay type: cell-based; conditions: 500 μM; data not shown
Experimental: In FIG. 5(A), THP-1 cell binding to von Wirebrand factor was examined in the presence of antibodies against the β2 (7E4), αvβ3 (LM609) or αIIbβ3 (P2) integrins. Following a 60 min incubation in von Willebrand factor-coated wells, the bound cells were determined. The data are the mean ±SD of triplicate wells. The experiment was repeated three times.
In FIG. 5(B), TRP-1 cells were allowed to bind to microtiter wells coated with von Willebrand factor, type IV collagen, or fibronectin. The C(1–8;3–9) peptide was included as a competitor in the concentrations described. The bound cells were determined by the phosphatase assay. The data are the mean ±SD of triplicate wells and were similar in four other experiments.
as §2, with “Unbound cells were removed by gently washing with PBS and pressing the plate against paper towels.” left out, “Briefly, 100 μl of 50 mM sodium acetate buffer, pH 5.0, containing 1% Triton X-100 and 6 mg/ml p-nitrophenyl phosphate was added per well and incubated for 1 h at 37° C. The reaction was stopped with 50 μl of 1 M NaOH.” left out, “Alternatively, the attached cells were stained with Crystal Violet essentially as described (Mould et al., 1995).” left out

αMβ2 integrin (Mac-1) = target: T3, αMβ2 integrin (Mac-1) (Homo sapiens, UniProt P11215); test: Phage display biopanning on purified integrin; assay type: binding; conditions: phage bound to αMβ2 integrin, CX7C and CX9C libraries, randomly selected clones
T3 construct: from tissue; host or cells: blood buffy coats (leukocytes)
Experimental: The αMβ2 integrin was purified by antibody affinity chromatography from buffy coats obtained from Finnish Red Cross Blood Transfusion Service as described previously (Li et al., 1995). Integrin diluted in Tris-buffered saline (TBS)/1 mM MnCl2 was coated onto microtiter wells overnight at 4° C. using one μg per well in the first biopanning and 100, 10 and 1 ng in subsequent pannings. The wells were blocked with 5% BSA in TBS for 1 h at 22° C. and then washed five times with TBS. Biopanning was performed using CX7C and CX9C phage peptide libraries essentially as described (Koivunen et al., 1994). The construction of libraries was modified so that the single-stranded DNA encoding degenerate sequences was converted into a double-stranded form using 5 cycles of PCR with only the reverse primer and then 11 cycles with both the reverse and forward primer. A total of 6 μg of the double-stranded oligonucleotide was purified using QIAGEN PCR purification kit and ligated with 42 μg of the Fuse5 phage vector. The number of recombinants in the libraries was more than 10^9. Phage binding, elution and subsequent amplification in E. coli were repeated five times, and after each panning bacterial colonies were picked up and stored in a 10 μl volume of TBS in microtiter wells at −20° C. For direct colony sequencing, one μl aliquots of the thawed samples were subjected to PCR with 10 pmol each of the forward primer 5′ […] 3′ (SEQ ID NO: 9) and the reverse primer 5′ […] 3′ (SEQ ID NO: 10). The PCR conditions were 92° C. for 30 s, 60° C. for 30 s, and 72° C. for 60 s, and the cycle number was 35. One μl aliquot of the PCR reaction was taken for sequencing using 15 pmol of either one of the primers and analyzed on an ABI 310 apparatus (PE Applied Biosystems, Foster City, Calif.).
After the fifh round of selection, the CX7C library gave a 600-fold enrichment and CX9C a 1000-fold enrichment of phage bound to the integrin in comparison to background. […] Four of them contained the LLG tripeptide motif. The two sequences most strongly enriched were CPCFLLGCC (SEQ ID NO: 3) (LLG-C4) and […] (SEQ ID NO: 11), each observed 15 times in the randomly selected clones, and these were the only clones remaining after searching for high affinity binders by using low integrin coating concentrations.

[4] = tested on: L929, K562, SKOV-3, KS6717 and Eahy96 cells; test: Adhesion of non-leukocytic cell lines to immobilized peptide or fusion protein; assay type: cell-based; conditions: cells pretreated with phorbol ester or not; data not shown
Experimental: as §2, with “Unbound cells were removed by gently washing with PBS and pressing the plate against paper towels.” left out, “Briefly, 100 μl of 50 mM sodium acetate buffer, pH 5.0, containing 1% Triton X-100 and 6 mg/ml p-nitrophenyl phosphate was added per well and incubated for 1 h at 37° C. The reaction was stopped with 50 μl of 1 M NaOH.” left out, “Alternatively, the attached cells were stained with Crystal Violet essentially as described (Mould et al., 1995).” left out

THP-1 cells = test: Transwell cell migration assay, LLG-C4-GST-coated filters; assay type: cell-based; conditions: 10% serum, 18 h
Experimental: The in vitro migration of THP-1 cells was studied in closely physiological conditions containing 10% serum to not interfere with adhesive properties of cells. Both the upper and lower surfaces of 8 μm pore size Transwell filters were coated with fibrinogen, LLG-C4-GST, or GST at a concentration of 40 μg/ml overnight at 4° C. Free binding sites were blocked by incubation with 5% BSA/TBS. THP-1 cells (5×10^4 in 100 μl) were plated on the upper compartment in 10% FCS-containing medium. The C(1–8;3–9) or C(1–9;3–8) peptide were included at a concentration of 200 μM. The lower compartment was filled with 750 μl of 10% FCS-containing medium. Following a culture for 18 h at 37° C. the filters were immersed in methanol for 15 min, in water for 10 s, and in 0.1% toluidine blue for 5 min. The filters were then washed 3–5 times with water until cell staining was clear. Cells were removed from the upper surface of the filter with a cotton swap, and cells migrated on the lower surface were counted microscopically. Student's t-test was used for statistical analysis.

## O=C(O)CN(CCN(CC(=O)O)CC(=O)O)CC(=O)O [EDTA, reference compound]
αMβ2 integrin; EDTA present
  inhibition of LLG-C4-GST binding to immunocaptured αMβ2 integrin: inhibited the binding of LLG-C4-GST to the integrin
αM subunit I-domain
  inhibition of LLG-C4-GST binding to the I-domain: blocked the binding
[1]; EDTA 2.5 mM
  effect of EDTA on THP-1 binding on LLG-C4-GST: completely abolished the binding
[2]; competitor
  inhibition of binding of αXβ2-transfected L cells to LLG-C4-GST: inhibited

## CAAGC (Synthetic peptide seen in Fig. 3B) [reference compound]
[1]
  competition of THP-1 cell adhesion on LLG-C4-GST substratum: weak competitor of cell adhesion
[3]
  inhibition of THP-1 binding to von Willebrand factor at 500 μM: not

## CLLGC (Synthetic peptide seen in Fig. 3B)
[1]
  competition of THP-1 cell adhesion on LLG-C4-GST substratum: readily inhibited cell adhesion
[3]
  inhibition of THP-1 binding to von Willebrand factor at 500 μM: inhibited

## CPEDLYFFC (Phage sequence bound to the alphaMbeta2 integrin (Mac-1))
αMβ2 integrin (Mac-1)
  number of isolated nucleotide sequences encoding each peptide: (3)

## CPPDLFWYC (Phage sequence bound to the alphaMbeta2 integrin (Mac-1))
αMβ2 integrin (Mac-1)
  number of isolated nucleotide sequences encoding each peptide: (4)

## CWHKDLLGC (Phage sequence bound to the alphaMbeta2 integrin (Mac-1))
αMβ2 integrin (Mac-1)
  number of isolated nucleotide sequences encoding each peptide: (4)

## CWKLLGSEEEC (Stronly enriched sequence)
αMβ2 integrin (Mac-1)
  number of isolated nucleotide sequences encoding each peptide: (15)
αMβ2 integrin (Mac-1); listed as CWKLGSEEEC
  number of isolated nucleotide sequences encoding each peptide: 15

## GST: control GST protein
αMβ2 integrin
  binding of GST protein to immunocaptured αMβ2 integrin: not GST alone
αM subunit I-domain
  binding to isolated I-domain of the αM subunit: did not bind

## LLG-C4 (1): air-oxidised synthetic biscyclic LLG-C4 preparation, highly active (CPCFLLGCC; disulfide (positions not given here))
αM subunit I-domain
  inhibition of LLG-C4-GST binding to the I-domain: blocked the ability of the I-domain to bind the LLG-C4-GST

## LLG-C4 (2): synthetic LLG-C4 preparation, inactive apparently due to disadvantageous disulfide bonding (CPCFLLGCC; disulfide (positions not given here); not fully specified)
αM subunit I-domain
  inhibition of LLG-C4-GST binding to the I-domain: did not inhibit LLG-C4-GST binding to the I-domain

## LLG-C4-GST: LLG-C4 nonapeptide expressed as GST fusion protein in E. coli (CPCFLLGCC-{GST}; cysteine pairing not given here)
αMβ2 integrin
  binding of GST protein to immunocaptured αMβ2 integrin: bound to the αMβ2 integrin in a divalent cation-sensitive manner
αM subunit I-domain
  binding to isolated I-domain of the αM subunit: concentration-dependent binding
[1]; protein coated on microtiter wells, 60 min
  binding of phorbol ester-activated THP-1 cells to coated protein: efficiently bound
[4]
  binding of non-leukocytic cell lines not expressing β2 integrins: showed no binding
[2]; p=0.016
  difference in binding of αXβ2-transfected L cells to LLG-C4-GST vs. GST: statistically significant
THP-1 cells
  cell migration on LLG-C4-GST compared with other coatings: more efficient than on fibronectin or fibrinogen coatings
THP-1 cells; filter coated at 40 μg/ml
  fold more cells migrated on LLG-C4-GST substratum than on control GST substratum: Approximately 10 fold
